Experimental data taken from ChEMBL document CHEMBL1201862, “PubChem BioAssay data set” (2004).
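Exposure lasted 48 hours, with cells grown in 96-well plates and compounds tested at five concentrations. GI50: concentration for 50% inhibition of growth.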 The source made the active and inactive calls. Cut-off read from the data, not from the text of the source: active = GI50 up to about 1.1 µM and inactive = higher.

What was measured:
Assay in all cases: inhibition of tumour cell growth, NCI panel, 48 h
SK-MEL-5 = system: SK-MEL-5
COLO 205 = system: COLO 205
OVCAR-8 = system: OVCAR-8
ACHN = system: ACHN
NCI-H226 = system: NCI-H226
MCF7 = system: MCF7
SR = system: SR
U-251 = system: U-251
SF-268 = system: SF-268
PC-3 = system: PC-3
SK-OV-3 = system: SK-OV-3
NCI-H23 = system: NCI-H23
HOP-92 = system: HOP-92
UACC-257 = system: UACC-257
SK-MEL-28 = system: SK-MEL-28
CAKI-1 = system: CAKI-1
HOP-62 = system: HOP-62
Hs-578T = system: Hs-578T
LOX IMVI = system: LOX IMVI
DU-145 = system: DU-145
NCI-H460 = system: NCI-H460
MDA-MB-231 = system: MDA-MB-231
OVCAR-3 = system: OVCAR-3
HCT-116 = system: HCT-116
RXF 393 = system: RXF 393
A498 = system: A498
UACC-62 = system: UACC-62
HL-60 = system: HL-60
UO-31 = system: UO-31
SK-MEL-2 = system: SK-MEL-2
SW-620 = system: SW-620
Malme-3M = system: Malme-3M
SNB-19 = system: SNB-19
SN12C = system: SN12C
NCI/ADR-RES = system: NCI/ADR-RES
M14 = system: M14
MDA-N = system: MDA-N
HCT-15 = system: HCT-15
A549 = system: A549
SF-539 = system: SF-539
OVCAR-5 = system: OVCAR-5
EKVX = system: EKVX
MDA-MB-435 = system: MDA-MB-435
HT-29 = system: HT-29
K562 = system: K562
IGROV-1 = system: IGROV-1
SF-295 = system: SF-295
MOLT-4 = system: MOLT-4
786-0 = system: 786-0
TK-10 = system: TK-10
BT-549 = system: BT-549
CCRF-CEM = system: CCRF-CEM
HCC 2998 = system: HCC 2998
RPMI-8226 = system: RPMI-8226
OVCAR-4 = system: OVCAR-4
KM12 = system: KM12
NCI-H522 = system: NCI-H522
SNB-75 = system: SNB-75
T47D = system: T47D

`CC(C)(C)C1CCC2c3c([nH]c4ccccc34)C3C(=O)N(c4ccc(C#N)cc4)C(=O)C3C2C1` (configuration not stated) was tested, and the GI50 (SK-MEL-5) was 12.9 µM (inactive), the GI50 (COLO 205) was 21.4 µM (inactive) and the GI50 (OVCAR-8) was 14.5 µM (inactive). The GI50 (ACHN) was 15.1 µM (inactive), the GI50 (NCI-H226) was 20 µM (inactive) and the GI50 (MCF7) was 29.5 µM (inactive). For the same compound, the GI50 (SR) was 6.47 µM (inactive), the GI50 (U-251) was 15.8 µM (inactive) and the GI50 (SF-268) was 11 µM (inactive). The GI50 (PC-3) was 3.66 µM (inactive), the GI50 (SK-OV-3) was 24.4 µM (inactive) and the GI50 (NCI-H23) was 6.61 µM (inactive). The GI50 (HOP-92) was 4.54 µM (inactive), the GI50 (UACC-257) was 20.2 µM (inactive) and the GI50 (SK-MEL-28) was 14 µM (inactive). For the same compound, the GI50 (CAKI-1) was 12.3 µM (inactive), the GI50 (HOP-62) was 15.7 µM (inactive) and the GI50 (Hs-578T) was 11.2 µM (inactive). For the same compound, the GI50 (LOX IMVI) was 13.2 µM (inactive), the GI50 (DU-145) was 13.6 µM (inactive) and the GI50 (NCI-H460) was 3.81 µM (inactive). For the same compound, the GI50 (MDA-MB-231) was 15.3 µM (inactive), the GI50 (OVCAR-3) was 16.4 µM (inactive) and the GI50 (HCT-116) was 5.43 µM (inactive). For the same compound, the GI50 (RXF 393) was 3.21 µM (inactive), the GI50 (A498) was 13.7 µM (inactive) and the GI50 (UACC-62) was 5.81 µM (inactive). The GI50 (HL-60) was 3.42 µM (inactive), the GI50 (UO-31) was 7.36 µM (inactive) and the GI50 (SK-MEL-2) was 13.1 µM (inactive). For the same compound, the GI50 (SW-620) was 8.13 µM (inactive), the GI50 (Malme-3M) was 17.3 µM (inactive) and the GI50 (SNB-19) was 34.4 µM (inactive). The GI50 (SN12C) was 9.59 µM (inactive), the GI50 (NCI/ADR-RES) was 17.6 µM (inactive) and the GI50 (M14) was 16.1 µM (inactive). For the same compound, the GI50 (MDA-N) was 11.9 µM (inactive), the GI50 (HCT-15) was 12.1 µM and the GI50 (A549) was 8.43 µM (inactive). The GI50 (SF-539) was 18.7 µM (inactive), the GI50 (OVCAR-5) was 20.7 µM (inactive) and the GI50 (EKVX) was 13.8 µM (inactive). The GI50 (MDA-MB-435) was 26.3 µM (inactive), the GI50 (HT-29) was 3.78 µM (inactive) and the GI50 (K562) was 6.22 µM (inactive). For the same compound, the GI50 (IGROV-1) was 16.4 µM (inactive), the GI50 (SF-295) was 29.2 µM (inactive) and the GI50 (MOLT-4) was 0.678 µM (active). The GI50 (786-0) was 12 µM (inactive), the GI50 (TK-10) was 20.3 µM (inactive) and the GI50 (BT-549) was 15.7 µM (inactive). The GI50 (CCRF-CEM) was 0.0108 µM (active), the GI50 (HCC 2998) was 3.25 µM (inactive) and the GI50 (RPMI-8226) was 21.3 µM (inactive).

With `COc1ccc(N2C(=O)C(C#N)=C(SC)C(C#N)C2=O)cc1` (configuration not stated) the GI50 (SK-MEL-5) was > 100 µM (inactive), the GI50 (COLO 205) was > 100 µM (inactive) and the GI50 (OVCAR-8) was > 100 µM (inactive). The GI50 (ACHN) was > 100 µM (inactive), the GI50 (NCI-H226) was > 100 µM (inactive) and the GI50 (MCF7) was > 100 µM (inactive). For the same compound, the GI50 (U-251) was > 100 µM (inactive), the GI50 (SF-268) was > 100 µM (inactive) and the GI50 (PC-3) was > 100 µM (inactive). The GI50 (SK-OV-3) was > 100 µM (inactive), the GI50 (OVCAR-4) was > 100 µM (inactive) and the GI50 (HOP-92) was 46.6 µM (inactive). The GI50 (UACC-257) was > 100 µM (inactive), the GI50 (CAKI-1) was > 100 µM (inactive) and the GI50 (HOP-62) was > 100 µM (inactive). The GI50 (KM12) was > 100 µM (inactive), the GI50 (Hs-578T) was 22.8 µM (inactive) and the GI50 (LOX IMVI) was > 100 µM (inactive). The GI50 (NCI-H522) was > 100 µM (inactive), the GI50 (NCI-H460) was > 100 µM (inactive) and the GI50 (MDA-MB-231) was > 100 µM (inactive). The GI50 (HCT-116) was > 100 µM (inactive), the GI50 (RXF 393) was > 100 µM (inactive) and the GI50 (SNB-75) was 47.1 µM (inactive). For the same compound, the GI50 (A498) was > 100 µM (inactive), the GI50 (UACC-62) was > 100 µM (inactive) and the GI50 (SK-MEL-2) was > 100 µM (inactive). For the same compound, the GI50 (SW-620) was > 100 µM (inactive), the GI50 (Malme-3M) was > 100 µM (inactive) and the GI50 (SNB-19) was 66.5 µM (inactive). The GI50 (SN12C) was > 100 µM (inactive), the GI50 (NCI/ADR-RES) was > 100 µM (inactive) and the GI50 (M14) was > 100 µM (inactive). For the same compound, the GI50 (MDA-N) was > 100 µM (inactive), the GI50 (HCT-15) was > 100 µM and the GI50 (A549) was > 100 µM (inactive). For the same compound, the GI50 (SF-539) was > 100 µM (inactive), the GI50 (OVCAR-5) was > 100 µM (inactive) and the GI50 (EKVX) was > 100 µM (inactive). The GI50 (MDA-MB-435) was > 100 µM (inactive), the GI50 (HT-29) was > 100 µM (inactive) and the GI50 (K562) was > 100 µM (inactive). For the same compound, the GI50 (IGROV-1) was > 100 µM (inactive), the GI50 (SF-295) was > 100 µM (inactive) and the GI50 (MOLT-4) was > 100 µM (inactive). The GI50 (786-0) was > 100 µM (inactive), the GI50 (TK-10) was > 100 µM (inactive) and the GI50 (BT-549) was > 100 µM (inactive). The GI50 (CCRF-CEM) was > 100 µM (inactive) and the GI50 (HCC 2998) was > 100 µM (inactive).

`C=C1C(=O)OC2/C=C(/C)C3(O)OC(C)(CC(OC(=O)C(C)C)C12)CC3OC(C)=O` (configuration not stated) was tested, and the GI50 (SK-MEL-5) was 6.31 µM (inactive), the GI50 (COLO 205) was 3.84 µM (inactive) and the GI50 (OVCAR-8) was 3.27 µM (inactive). For the same compound, the GI50 (ACHN) was 2.3 µM (inactive), the GI50 (NCI-H226) was 35.5 µM (inactive) and the GI50 (MCF7) was 3.7 µM (inactive). The GI50 (SR) was 2.52 µM (inactive), the GI50 (U-251) was 8 µM (inactive) and the GI50 (SF-268) was 22.6 µM (inactive). For the same compound, the GI50 (PC-3) was 13.7 µM (inactive), the GI50 (SK-OV-3) was 7.59 µM (inactive) and the GI50 (NCI-H23) was 3.34 µM (inactive). For the same compound, the GI50 (OVCAR-4) was 13.2 µM (inactive), the GI50 (HOP-92) was 13.3 µM (inactive) and the GI50 (UACC-257) was 16.4 µM (inactive). The GI50 (SK-MEL-28) was 7.48 µM (inactive), the GI50 (CAKI-1) was 2.48 µM (inactive) and the GI50 (HOP-62) was 30.4 µM (inactive). The GI50 (KM12) was 16.2 µM (inactive), the GI50 (LOX IMVI) was 8.87 µM (inactive) and the GI50 (DU-145) was 8.26 µM (inactive). For the same compound, the GI50 (NCI-H522) was 1.91 µM (inactive), the GI50 (NCI-H460) was 3.9 µM (inactive) and the GI50 (MDA-MB-231) was 12.5 µM (inactive). The GI50 (OVCAR-3) was 11.5 µM (inactive), the GI50 (HCT-116) was 5.3 µM (inactive) and the GI50 (RXF 393) was 1.47 µM (inactive). For the same compound, the GI50 (SNB-75) was 47.5 µM (inactive), the GI50 (A498) was 3.96 µM (inactive) and the GI50 (UACC-62) was 11 µM (inactive). For the same compound, the GI50 (HL-60) was 2.64 µM (inactive), the GI50 (UO-31) was 6.17 µM (inactive) and the GI50 (SK-MEL-2) was 12 µM (inactive). The GI50 (SW-620) was 4.19 µM (inactive), the GI50 (T47D) was 13 µM (inactive) and the GI50 (Malme-3M) was 9.91 µM (inactive). The GI50 (SNB-19) was 15.3 µM (inactive), the GI50 (SN12C) was 4.9 µM (inactive) and the GI50 (NCI/ADR-RES) was 11.9 µM (inactive). For the same compound, the GI50 (M14) was 6.92 µM (inactive), the GI50 (MDA-N) was 2.04 µM (inactive) and the GI50 (HCT-15) was 4.45 µM. For the same compound, the GI50 (A549) was 10.8 µM (inactive), the GI50 (SF-539) was 3.05 µM (inactive) and the GI50 (OVCAR-5) was 12.9 µM (inactive). The GI50 (EKVX) was 10.6 µM (inactive), the GI50 (MDA-MB-435) was 3.96 µM (inactive) and the GI50 (HT-29) was 4.55 µM (inactive). The GI50 (K562) was 2.96 µM (inactive), the GI50 (IGROV-1) was 4.5 µM (inactive) and the GI50 (SF-295) was 9.75 µM (inactive). For the same compound, the GI50 (MOLT-4) was 4.36 µM (inactive), the GI50 (786-0) was 5.27 µM (inactive) and the GI50 (TK-10) was 5.82 µM (inactive). The GI50 (BT-549) was 5.79 µM (inactive), the GI50 (CCRF-CEM) was 2.79 µM (inactive) and the GI50 (HCC 2998) was 4.53 µM (inactive). The GI50 (RPMI-8226) was 4.43 µM (inactive).
